From US20080306019A1, “Dopamine Receptor Agonists in the Treatment and Prevention of Hiv-Induced Dementia” (priority 2005, published 2008)

Experiments:
human fetal neurons = details: for neuroprotection against synergistic toxicity of HIV proteins plus cocaine (percent neuronal death): pretreatment before Tat1-72 (40 nM) + gp120 (32.5 pM) + cocaine (1.6 μM); for magnitude of cell death vs Locke's buffer control: HIV proteins plus cocaine challenge with steroid pretreatment
Protocol: Culture of Human Brain Cells: Neuronal cultures were prepared as described previously (Magnuson D S, et al. Ann Neurol 1995, 37: 373-380; Nath A, et al. J Virol 1996, 70: 1475-1480; New D, et al. J Neurovirol 1997, 3: 168-173). Human fetal brain specimens of gestational age 12-14 weeks were obtained with the consent of women opting for elective termination of pregnancy. Protocols were carried out with strict adherence to the guidelines of the National Institutes of Health (NIH) and with approval from the University of Kentucky Institutional Review Board. Briefly, after mechanical dissociation, the cells were suspended in Opti-MEM with 5% heat-inactivated fetal bovine serum, 0.2% N2 supplement and 1% antibiotic solution (penicillin G sodium 104 units/ml, streptomycin sulfate 10 μg/ml and amphotericin-B 25 μg/ml) (GIBCO). The cells were maintained in culture flasks at 37° C. in a humidified atmosphere of 5% CO2 and 95% air for at least a month. At least 3 days before the experiment was performed the cells were plated in flat bottom 96 well plates coated with poly-d-lysine. Sample cultures were stained for the neuron-specific enolase, microtubule-associated protein-2, synaptophysin, and glial fibrillary astrocytic protein (GFAP). […] Sample cultures were further characterized for the presence of ER-α and ER-β and dopaminergic neurons.
Neurotoxicity Assay: At the time of the experimental treatment, the culture media was replaced with Locke's buffer containing (in mM) 154 NaCl, 5.6 KCl, 2.3 CaCl2, 1 MgCl2, 3.6 NaHCO3, 5 glucose, 5 N-2-hydroxyethylpiperazine-N′2-ethanesulfonic acid (HEPES) and 1% antibiotic solution (penicillin G sodium 104 units/ml, streptomycin sulfate 10 μg/ml and amphotericin-B 25 μg/ml) (pH 7.2). […] To replicate the stereoisomer specific neuroprotective properties of estrogen, the cultures were treated with either […] (10 nM), or 17α-E2 (10 nM) immediately preceding addition of the HIV proteins plus cocaine. To investigate the neuroprotective properties of other gonadal steroids, the cells were treated with various concentrations of PROG or T, immediately followed by exposure to the HIV proteins plus cocaine. […] Various concentrations of cholesterol were used as treatment prior to incubation with the HIV proteins plus cocaine to further characterize the nature of gonadal steroid neuroprotection. ICI-182,780, DMSO (10 nM), β-cyclodextrin (100 nM) and ethanol (10 nM) were also tested for neurotoxic/protective effects. ICI-182,780 and 17α-E2 were solvated in DMSO. […], T, PROG and cholesterol were β-cyclodextrin encapsulated to provide water solubility. Ethanol was used to solvate DHT. Tat1-72 was produced as indicated above, whereas gp120 was a gift from Chiron Corporation. The ICI-182,780 compound was obtained from Tocris Cookson, Inc. (Ellisville, Mo.). All other chemical agents were supplied by Sigma Chemicals (St. Louis, Mo.). At the end of the incubation period neuronal death was assessed by trypan blue (Sigma) exclusion assay as described previously (Vongher J and Frye C. Pharmacol Biochem Behav 1999, 64: 777-785; Magnuson D S, et al. Ann Neurol 1995, 37: 373-380; Nath A, et al. J Virol 1996, 70: 1475-1480).

Sprague-Dawley rats = test: Neonatal hippocampal gp120 injections with or without apomorphine: PPI in adult rats; assay type: in vivo, rat
SK-N-SH cells = test: DCFH fluorescence (oxidative stress) in SK-N-SH cells; assay type: cell-based, human; details: for effect of hormone on tat+gp120-induced fluorescence: gp120 (30 pM)+tat (60 nM), hormone 0.1 to 100 nM
Protocol: Cell Culture Assays: SK-N-SH cells (ATCC) were grown in RPMI 1640 with 1% streptomycin/amphotericin and 10% FBS and incubated at 37° C. in the presence of 5% CO2. Cells were subcultured into 96-well plates at a density of 10^4 cell/well and used within 24 hours. Plates were first washed with warmed Krebs buffer (KHB). Stock DCFH in DMSO was diluted in KHB to a final concentration of 100 μM and incubated in each well for 30 minutes. DCFH dye was removed and cells were washed with warmed KHB and the appropriate drug or drug combination was added. Plates were returned to the incubator and drugs were allowed to incubate for 30 minutes. Incubation with the free radical generator SIN-1 (3-morpholinosydnonimine-peroxynitrite and superoxide) was carried out for an additional 30 minutes. The second series of experiments utilized tat (10-250 nM) or gp120 (25-100 pM) in place of the free radical generator.
The concentration of either E2 or progesterone was 0.1 to 100 nM. Plates were returned to the incubator with the hormones and were allowed to incubate for 15 minutes. SIN-1 (50 μM) was chosen as the free radical generator due to the production of peroxynitrite. Previous studies have shown that this concentration of SIN-1 yielded maximum increases in DCFH fluorescence (Wang and Joseph, 1999). In groups that examined the protective effects of E2 and/or progesterone, the hormone was added 15 minutes prior to addition of SIN-1, tat or gp120. Studies that have examined the simultaneous addition of the oxidative stress agent and hormone have yielded attenuated results. Following incubation with SIN-1, tat or gp120 (depending on the assay), fluorescence was determined by using a Bio-Tek plate reader with the settings of 485 n (excitation) and 585 nm (emission) with an integration time of 40 ms. Assays were run four separate times in triplicate. Data are expressed as mean of the separate assays±SEM.

dopamine transporter = target: T1, dopamine transporter (Rattus norvegicus, UniProt P23977); test: [3H] dopamine uptake in rat striatal synaptosomes; assay type: biochemical
T1 construct: followed by differential centrifugation resulting in a crude P2 preparation; from tissue; host or cells: rat striatum (synaptosomes, crude P2 preparation)
Protocol: [^3H] Dopamine uptake in synaptosomes assays: Striatal tissue from 4-5 month old male Sprague-Dawley rats (N=4) was homogenized in 5 mL ice-cold 0.32 M sucrose using a glass/Teflon homogenizer followed by differential centrifugation resulting in a crude P2 preparation. Crude P2 preparations are resuspended to a final volume of 15 mL (0.13-0.15 μg protein/tube) in assay buffer (consisting of 25 mM HEPES, 120 mM NaCl, 5 mM KCl, 2.5 mM CaCl2, 1.2 mM MgSO4, […] ascorbic acid, 1 μM pargyline and 2 mg/mL D-(+) glucose). P2 preparation was then added to assay tubes in 400 μL, followed by 50 μL of buffer or drug. Uptake was initiated by the addition of [7, 8 ^3H] dopamine, 0.02 M acetic acid:ethanol (1:1) solution (Amersham Biosciences, UK). Synaptosomes were preincubated first with 100 nM E2 30 minutes to the initiation of uptake, followed by addition of the appropriate concentrations of gp120 (30 pM) and tat (60 nM), or both proteins, 15 minutes prior to the start of the uptake assay. […] Filters were washed 15 seconds with ice-cold 0.9% NaCl and total [^3H] dopamine uptake was determined by scintillation spectrophotometry. Nonspecific uptake was determined in a parallel set of tubes run in the presence of 1 μM Mazindol, a dopamine uptake inhibitor. Data are expressed as the mean±SEM (N=4).

rat hippocampal neurons = test: Live/Dead (Calcein/Ethidium) viability of rat hippocampal neuronal cultures
[1] = HIV proteins plus cocaine challenge

T1 sequence (P23977 whole entry): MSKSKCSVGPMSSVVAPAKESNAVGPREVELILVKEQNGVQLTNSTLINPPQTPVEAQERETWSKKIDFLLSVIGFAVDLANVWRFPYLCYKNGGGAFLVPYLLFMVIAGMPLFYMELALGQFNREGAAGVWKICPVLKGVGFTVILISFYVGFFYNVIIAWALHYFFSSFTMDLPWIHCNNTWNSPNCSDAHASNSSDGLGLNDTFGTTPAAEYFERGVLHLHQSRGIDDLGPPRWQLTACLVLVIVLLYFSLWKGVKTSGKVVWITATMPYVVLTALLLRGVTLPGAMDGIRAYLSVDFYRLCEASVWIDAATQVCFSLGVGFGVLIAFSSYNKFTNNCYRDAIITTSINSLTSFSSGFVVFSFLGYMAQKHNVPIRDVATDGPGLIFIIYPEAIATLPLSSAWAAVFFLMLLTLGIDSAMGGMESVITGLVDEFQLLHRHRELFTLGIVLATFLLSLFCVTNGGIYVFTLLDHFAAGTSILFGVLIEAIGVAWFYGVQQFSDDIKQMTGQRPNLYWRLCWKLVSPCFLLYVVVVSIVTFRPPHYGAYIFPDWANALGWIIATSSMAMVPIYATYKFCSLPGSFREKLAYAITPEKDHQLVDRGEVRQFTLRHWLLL

SMILES: C[C@]12CC[C@@H]3c4ccc(O)cc4CC[C@H]3[C@@H]1CC[C@H]2O [17α-E2]
- neuroprotection against synergistic toxicity of HIV proteins plus cocaine (percent neuronal death) (human fetal neurons; 15 hours): not significantly different from the synergistic toxicity control

SMILES: CN1CCc2cccc3c2[C@H]1Cc1ccc(O)c(O)c1-3 [APO, apomorphine]
- peak ASR magnitude in PPI trials: gp120×drug interaction (Sprague-Dawley rats; 8-120 msec ISIs): significantly altered the gp120 dose response
- peak ASR latency in PPI trials (Sprague-Dawley rats; rat, in vivo): did not have an impact on latency response
- peak ASR magnitude, adaptation trials: apomorphine (Sprague-Dawley rats; rat, in vivo): attenuated the baseline of peak magnitude of the ASR

SMILES: CC(C)CCC[C@@H](C)[C@H]1CC[C@H]2[C@@H]3CC=C4C[C@@H](O)CC[C@]4(C)[C@H]3CC[C@]12C [Cholesterol]
- concentration dependence of effect on percent neuronal death (human fetal neurons; [1]): concentration-dependent effect of cholesterol with a significant linear decrease in percent neuronal death
- concentration giving maximal / full neuroprotection (human fetal neurons; [1]): 100 nM
- magnitude of cell death vs Locke's buffer control (human fetal neurons): not significantly different from that observed by Locke's buffer incubation
- neuroprotection against synergistic toxicity of HIV proteins plus cocaine (percent neuronal death) (human fetal neurons; 15 hours): Significant neuroprotection

SMILES: C[C@]12CCC(=O)C[C@@H]1CC[C@@H]1[C@@H]2CC[C@]2(C)[C@@H](O)CC[C@@H]12 [DHT, 5α-Androstan-17β-ol-3-one; 17β-Hydroxy-5α-androstan-3-one]
- concentration dependence of effect on percent neuronal death (human fetal neurons; [1]): no concentration-dependent effect
- magnitude of cell death vs Locke's buffer control (human fetal neurons): significantly greater than that observed with Locke's Buffer control
- neuroprotection against synergistic toxicity of HIV proteins plus cocaine (percent neuronal death) (human fetal neurons; 15 hours): significant neuroprotection

SMILES: C[C@]12CC[C@@H]3c4ccc(O)cc4CC[C@H]3[C@@H]1CC[C@@H]2O [E2, 17β-estradiol]
- SIN-1-induced fluorescence at highest concentration of E2 (SK-N-SH cells; 100 nM E2, 50 μM SIN-1): reduced fluorescence levels to control values
- lowest E2 concentration with significant reduction of SIN-1-induced fluorescence (SK-N-SH cells; 50 μM SIN-1, E2 0.1 to 100 nM): 1 nM
- effect of hormone on tat+gp120-induced fluorescence (SK-N-SH cells): concentrations of 1, 10 and 100 nM E2 were each significantly (p<0.001) different from control values
- Vmax with gp120 + tat + E2 (dopamine transporter; 100 nM E2 with gp120 and tat, control 231): 220 nmol/mg protein/minute
- effect of E2 on gp120- or tat-induced reduction of [3H] dopamine uptake (dopamine transporter; co-incubation with 100 nM E2): reversed this reduction
- neuroprotection against synergistic toxicity of HIV proteins plus cocaine (percent neuronal death) (human fetal neurons; 15 hours): precluded by pretreatment with 10 nM dose of 17β-E2

SMILES: Fc1ccc(C(OCCN2CCN(CCCc3ccccc3)CC2)c2ccc(F)cc2)cc1 [GBR-12909]
- neurotoxicity of GBR 12909 alone (rat hippocampal neurons; doses from 0.05 to 6 μM): not neurotoxic

SMILES: C[C@]12CC[C@@H]3c4ccc(O)cc4C[C@@H](CCCCCCCCC[S+]([O-])CCCC(F)(F)C(F)(F)F)[C@H]3[C@@H]1CC[C@@H]2O (stereo partly shown) [ICI-182,780]
- effect of ICI 182,780 on E2 attenuation of tat+gp120-induced fluorescence (SK-N-SH cells; 100 nM E2+1 μM ICI 182,780): Neither progesterone nor E2+ICI 182,780 values differed significantly from control values
- blockade of T (10 nM) neuroprotection (human fetal neurons; ICI-182,780 100 nM pretreatment): fully blocked
- neuroprotection against synergistic toxicity of HIV proteins plus cocaine (percent neuronal death) (human fetal neurons; 15 hours): nor was it neuroprotective against the toxic challenge
- toxicity alone vs Locke's buffer (human fetal neurons; substance alone, 15 hours): not more toxic to the cultures than was Locke's buffer

SMILES: CC(=O)[C@H]1CC[C@H]2[C@@H]3CCC4=CC(=O)CC[C@]4(C)[C@H]3CC[C@]12C [PROG, progesterone]
- effect of hormone on tat+gp120-induced fluorescence (SK-N-SH cells): had no effect on tat+gp120-induced fluorescence
- concentration dependence of effect on percent neuronal death (human fetal neurons; [1]): no concentration-dependent effect
- magnitude of cell death vs Locke's buffer control (human fetal neurons): significantly greater than that observed with Locke's Buffer control
- neuroprotection against synergistic toxicity of HIV proteins plus cocaine (percent neuronal death) (human fetal neurons; 15 hours): significant neuroprotection

SMILES: CN1CCc2cc(Cl)c(O)cc2[C@@H](c2ccccc2)C1 [SCH 23390]
- neuronal cell viability, SCH 23390 alone (rat hippocampal neurons; 0.1 to 10 μM): did not cause any changes in neuronal cell viability

SMILES: N=c1c[n+](N2CCOCC2)[n-]o1 [SIN-1, 3-morpholinosydnonimine]
- lowest concentration with significant increase in fluorescence (SK-N-SH cells; SIN-1 0-500 μM): 5 µM
